From publication PMC5291759 (Bioorganic & medicinal chemistry, 2016)
“Also recorded” adds a separate entry of the source. Where two headings read alike, the source gives them in different places.

Key:
Lmna^H222P/H222P mice [1] = conditions: cited from earlier work
HT-29 cells = test: Anti-proliferative activity on HT-29 cells; type: cell-based; conditions: HT-29 anti-proliferative IC50
[2] = test system: ERK1/2 phosphorylation in HEK-293 cells; test: Phosphorylated ERK1/2 immunoblot in cultured HEK-293 cells; type: cell-based; conditions: 1 µM to 0.001 µM, 24 h
ERK1/2 phosphorylation = test: Phosphorylated ERK1/2 relative to total ERK1/2 in tissues of treated mice; type: in vivo, Lmna^H222P/H222P mice; conditions: six weeks
Lmna^H222P/H222P mice [3] = test: Quantitative real-time RT-PCR of Nppa and Myl7 mRNA in hearts; type: in vivo
Lmna^H222P/H222P mice [4] = test: Cardiac fibrosis score; type: in vivo
Lmna^H222P/H222P mice [5] = test: Serum creatine phosphokinase activity; type: in vivo
Lmna^H222P/H222P mice [6] = test: Forelimb grip fatigue index; type: in vivo; conditions: 6 mg/kg/day
Lmna^H222P/H222P mice [7] = test: Histology of quadriceps muscle; type: in vivo; conditions: placebo 3 of 6
Lmna^H222P/H222P mice [8] = type: in vivo; conditions: for Amylase (serum): 6 weeks, mean ± standard error, n = 10
Lmna^H222P/H222P mice [9] = type: in vivo; conditions: 6 weeks

Structure (SMILES): Cn1cnc2c(F)c(Nc3ccc(Br)cc3Cl)c(C(=O)NOCCO)cc21 [selumetinib]
- effect on left ventricular and skeletal muscle function and survival (Lmna^H222P/H222P mice [1]): beneficial effect on left ventricular and skeletal muscle function and prolongs survivial

Structure (SMILES): O=S1(=O)Nc2c(cc(F)c(F)c2Nc2ccc(I)cc2F)OCC(O)C(O)CC12CC2 (stereo not drawn) [compound 8]
- potency of fast moving isomer compared to the slow moving one (HT-29 cells): approximately 25 fold
- ERK1/2 phosphorylation [2]: essentially abolished ERK1/2 phosphorylation
- phosphorylated ERK1/2 relative to total ERK1/2 in heart (ERK1/2 phosphorylation; 3 mg/kg/day oral gavage): significant decreases
- phosphorylated ERK1/2 relative to total ERK1/2 in liver (ERK1/2 phosphorylation; 3 mg/kg/day oral gavage): significant decreases
- phosphorylated ERK1/2 relative to total ERK1/2 in quadriceps muscle (ERK1/2 phosphorylation; 3 mg/kg/day oral gavage): only the higher dose produced a significant decrease
- phosphorylated ERK1/2 relative to total ERK1/2 in heart (ERK1/2 phosphorylation; 6 mg/kg/day oral gavage): significant decreases
- phosphorylated ERK1/2 relative to total ERK1/2 in liver (ERK1/2 phosphorylation; 6 mg/kg/day oral gavage): significant decreases
- phosphorylated ERK1/2 relative to total ERK1/2 in quadriceps muscle (ERK1/2 phosphorylation; 6 mg/kg/day oral gavage): significant decrease
- cardiac Nppa mRNA compared to placebo (Lmna^H222P/H222P mice [3]; 3 mg/kg/day): significantly reduced
- cardiac Myl7 mRNA compared to placebo (Lmna^H222P/H222P mice [3]; 6 mg/kg/day): significantly decreased
- cardiac Nppa mRNA compared to placebo (Lmna^H222P/H222P mice [3]; 6 mg/kg/day): significantly reduced
- cardiac fibrosis score (grade 0-4) compared to placebo (Lmna^H222P/H222P mice [4]; 3 mg/kg/day): statistically significant decreases in fibrosis
- cardiac fibrosis score (grade 0-4) compared to placebo (Lmna^H222P/H222P mice [4]; 6 mg/kg/day): statistically significant decreases in fibrosis
- serum creatine phosphokinase activity compared to placebo (Lmna^H222P/H222P mice [5]; 3 mg/kg/day): but not 3 mg/kg/day of 8 significantly reduced
- serum creatine phosphokinase activity compared to placebo (Lmna^H222P/H222P mice [5]; 6 mg/kg/day): significantly reduced
- forelimb grip fatigue index compared to placebo (Lmna^H222P/H222P mice [6]): significantly reduced
- quadriceps samples with internally nucleated fibers (Lmna^H222P/H222P mice [7]; 3 mg/kg/day): 1 of 5
- quadriceps samples with internally nucleated fibers (Lmna^H222P/H222P mice [7]; 6 mg/kg/day): 0 of 5
- Amylase (serum) (Lmna^H222P/H222P mice [8]; 3 mg/kg/day): 1,372 ± 282.9 U/L
- Amylase (serum) (Lmna^H222P/H222P mice [8]; 6 mg/kg/day): 1,086 ± 40.18 U/L
- liver, kidney or pancreatic toxicity by serum chemistry (Lmna^H222P/H222P mice [8]; 6 weeks of treatment at a dose up to 6 mg/kg/day): did not produce significant liver, kidney or pancreatic toxicity
- Kidney histology, individual sample (Lmna^H222P/H222P mice [9]; 3 mg/kg/day): Normal
- Liver histology, individual sample (Lmna^H222P/H222P mice [9]; 3 mg/kg/day): Normal; also recorded: Slightly greater vacuolation in some zones; similar to 7606 but milder; could be preparation artifact
- Spleen histology, individual sample (Lmna^H222P/H222P mice [9]; 3 mg/kg/day): Mildly increased number of hemosiderin-laden macrophages suggestive of old hemorrhage Somewhere; also recorded: Normal (hemosiderin-laden macrophages present but at approximately normal levels)
- Kidney histology, individual sample (Lmna^H222P/H222P mice [9]; 6 mg/kg/day): Some lymphocytic inflammation around the renal pelvis (around the ureter) and occasional medium-sized arteries; more inflammation than 7623 and 7622; also recorded: Mostly normal but some mild lymphocytic inflammation around small arteries with occasional hemosiderin-laden macrophages
- Liver histology, individual sample (Lmna^H222P/H222P mice [9]; 6 mg/kg/day): Occasional hemosiderin laden macrophages. Some portal triads have mild lymphocytic inflammation; significance uncertain; also recorded: Normal; also recorded: Some intracellular vacuolation in some zones; similar to 7612; could be preparation artifact
- Spleen histology, individual sample (Lmna^H222P/H222P mice [9]; 6 mg/kg/day): Area of necrosis consistent with splenic infarct; moderately increased number of hemosiderin-laden macrophages suggestive of hemorrhage old somewhere; also recorded: Normal
- liver, kidney or spleen histopathology, overall (Lmna^H222P/H222P mice [9]; 3 or 6 mg/kg/day): no consistent or specific abnormalities in liver, kidney or spleen histopathology

Structure (SMILES): COc1cccc(-c2cc(=O)c3ccccc3o2)c1N [PD98059]
- effect on left ventricular and skeletal muscle function and survival (Lmna^H222P/H222P mice [1]): beneficial effect on left ventricular and skeletal muscle function and prolongs survivial
